*1 amine or outer side, *2 acyl side, *3 side chain or, on linkers, in order; H or OH if unused. Where a SMILES comes first, the peptide text is derived from it. Bridges are numbered along the chain shown (N, C = ends). [ ]: non-standard residue; d: D form. The star is where a group is joined. X169 = CN([C@@H](Cc1cc(Cl)ccc1-c1ccc(-c2cnn3c2COCC3)cc1)C(=O)[*:2])[*:1]; X150 = CC(C)C(=O)N1C2C=C(c3ccc(F)cc3C[C@@H](C(=O)[*:2])N(C)[*:1])CC1CC2; X165 = CN([C@@H](Cc1cc(Cl)ccc1-c1ccc(N2CCOCC2)c(Cl)c1)C(=O)[*:2])[*:1]; X42 = CN([C@@H](Cc1cc(Cl)ccc1-c1cnn(S(=O)(=O)C2CC2)c1)C(=O)[*:2])[*:1]; X190 = CC(=O)N1CC(Oc2ncc(Cl)cc2C[C@@H](C(=O)[*:2])N(C)[*:1])C1; X147 = CCSc1ccc(-c2ccc(Cl)cc2C[C@@H](C(=O)[*:2])N(C)[*:1])cn1; X196 = CN([C@@H](Cc1cc(F)ccc1-c1cnn2ccncc12)C(=O)[*:2])[*:1]; X26 = CN([C@@H](Cc1cc(F)ccc1-c1cnn(C2CC2)c1)C(=O)[*:2])[*:1]; NMehhhLys(Me) = CN([C@@H](CCCCCCCN(C)[*:3])C(=O)[*:2])[*:1]; X22 = CN([C@@H](Cc1cc(Cl)ccc1-c1cnn(C)c1)C(=O)[*:2])[*:1]; NMe(hhhLys) = CN([C@@H](CCCCCCCN[*:3])C(=O)[*:2])[*:1]; X210 = CC(C)=Cc1ccc(Cl)cc1C[C@@H](C(=O)[*:2])N(C)[*:1]; cBuCO(3,3-F2-1-CF3) = O=C(C1(C(F)(F)F)CC(F)(F)C1)*; X25 = CCOc1ncc(Cl)cc1C[C@@H](C(=O)[*:2])N(C)[*:1]; X4 = Cc1ccc(Cl)cc1C[C@@H](C(=O)[*:2])N(C)[*:1]; Pro(trans-4-F) = O=C(O)[C@@H]1C[C@@H](F)CN1; Pivaloyl(3,3,3-F3) = CC(C)(C(=O)*)C(F)(F)F; Pro(4,4-F2) = O=C(O)[C@@H]1CC(F)(F)CN1; Gly(cPr) = N[C@H](C(=O)O)C1CC1; X129 = N#CC1(C(=O)*)CCC1
How the values were obtained:
[1] = molecular target: T1, CyclinA2/CDK2 (Homo sapiens, UniProt P20248); assay: Fluorescence Polarization (FP) competitive binding assay, Cyclin A2/Cdk2; conditions: 8 nM Cyclin A2/Cdk2, 2 nM FAM probe; average of 2-3 independent experiments; read-out: Cyclin A FP IC50;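 note: plates equilibrated two hours at room temperature before polarization reading, IC50 fitted from eight-concentration compound titration curves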
T1 construct: purchased CRELUX Protein Services

[2] = molecular target: T2, CyclinB1/CDK1 (Homo sapiens, UniProt P14635); assay: Fluorescence Polarization (FP) competitive binding assay, Cyclin B1/Cdk1; conditions: 10 nM Cyclin B1/Cdk1, 2 nM FAM probe; average of 2-3 independent experiments; read-out: Cyclin B FP IC50;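 note: fluorescence polarization read after equilibration at room temperature, with IC50 taken from serially diluted dose-response curves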
T2 construct: purchased Eurofins, discovery 14-450

[3] = molecular target: T3, CyclinE1/CDK2 (Homo sapiens, UniProt P24864); assay: Fluorescence Polarization (FP) competitive binding assay, Cyclin E1/Cdk2; conditions: 10 nM Cyclin E1/Cdk2, 2 nM FAM probe; average of 2-3 independent experiments; read-out: Cyclin E FP IC50;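 note: readings taken after two-hour equilibration at room temperature in HEPES buffer with NaCl, DTT, NP-40 and BSA, IC50 fitted from eight-concentration serial dilution series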
T3 construct: purchased Eurofins, discovery 14-475

[4] = system: NCI-H1048 cells; assay: MTT proliferation assay, NCI-H1048; format: cell-based; conditions: 5 days compound exposure, 1:3 serial dilution starting at 10 μM;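 note: Dose-response in 96-well plates over 8 or 10 concentration points, with exposure spanning 3-4 cell doublings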
[5] = system: OVCAR3 cells; assay: MTT proliferation assay, OVCAR3; format: cell-based; conditions: 5 days compound exposure, 1:3 serial dilution starting at 10 μM;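 note: compound given as an 8- or 10-point series, one day after plating, with exposure covering roughly 3-4 cell doublings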

Work on `CC(C)=Cc1ccc(Cl)cc1C[C@H]1C(=O)NCCCCCCC[C@H](N(C)C(=O)[C@@H](NC(=O)[C@@H]2C[C@@H](F)CN2C(=O)C2(C(F)(F)F)CC(F)(F)C2)C2CC2)C(=O)N[C@@H](CC(C)C)C(=O)N1C` [Example 62] ({cBuCO(3,3-F2-1-CF3)}-[Pro(trans-4-F)][Gly(cPr)][NMe(hhhLys)]L[X210]; lactam 3-C) yielded an IC50 [1] of 0.03 µM, an IC50 [2] of 0.02 µM and an IC50 [3] of 0.39 µM. The GI50 [4] was 0.06 µM and the GI50 [5] was 0.07 µM.
Work on `CC(C)C[C@@H]1NC(=O)[C@@H](N(C)C(=O)[C@@H](NC(=O)[C@@H]2C[C@@H](F)CN2C(=O)C2(C(F)(F)F)CC(F)(F)C2)C2CC2)CCCCCCCN(C)C(=O)[C@H](Cc2cc(F)ccc2C2=CC3CCC(C2)N3C(=O)C(C)C)N(C)C1=O` (stereo partly drawn) [Example 150] ({cBuCO(3,3-F2-1-CF3)}-[Pro(trans-4-F)][Gly(cPr)][NMehhhLys(Me)]L[X150]; lactam 3-C) yielded an IC50 [1] of 0.02 µM, an IC50 [2] of 0.02 µM and an IC50 [3] of 0.21 µM. The GI50 [4] was 0.02 µM and the GI50 [5] was 0.04 µM.
Compound `CC(C)C[C@@H]1NC(=O)[C@@H](N(C)C(=O)[C@@H](NC(=O)[C@@H]2CC(F)(F)CN2C(=O)C2(C(F)(F)F)CC(F)(F)C2)C2CC2)CCCCCCCN(C)C(=O)[C@H](Cc2cc(Cl)ccc2-c2cnn(C)c2)N(C)C1=O` [Example 343] ({cBuCO(3,3-F2-1-CF3)}-[Pro(4,4-F2)][Gly(cPr)][NMehhhLys(Me)]L[X22]; lactam 3-C) has an IC50 [1] of 0.02 µM, an IC50 [2] of 0.02 µM and an IC50 [3] of 0.67 µM. For the same compound, the GI50 [4] was 0.01 µM and the GI50 [5] was 0.01 µM.
With `CCOc1ncc(Cl)cc1C[C@H]1C(=O)N(C)CCCCCCC[C@H](N(C)C(=O)[C@@H](NC(=O)[C@@H]2C[C@@H](F)CN2C(=O)C(C)(C)C(F)(F)F)C2CC2)C(=O)N[C@@H](CC(C)C)C(=O)N1C` [Example 269] ({Pivaloyl(3,3,3-F3)}-[Pro(trans-4-F)][Gly(cPr)][NMehhhLys(Me)]L[X25]; lactam 3-C) the IC50 [1] was 0.06 µM, the IC50 [2] was 0.02 µM and the IC50 [3] was 0.1 µM. The GI50 [4] was 0.03 µM and the GI50 [5] was 0.03 µM.
Compound `CC(C)C[C@@H]1NC(=O)[C@@H](N(C)C(=O)[C@@H](NC(=O)[C@@H]2C[C@@H](F)CN2C(=O)C2(C(F)(F)F)CC(F)(F)C2)C2CC2)CC=CCCCCN(C)C(=O)[C@H](Cc2cc(F)ccc2-c2cnn(C3CCOC3)c2)N(C)C1=O` (stereo partly drawn) [Example 85] has an IC50 [1] of 0.06 µM, an IC50 [2] of 0.02 µM and an IC50 [3] of 0.28 µM. It also gave a GI50 [4] of 0.02 µM and a GI50 [5] of 0.02 µM.
`CC(C)C[C@@H]1NC(=O)[C@@H](N(C)C(=O)[C@@H](NC(=O)[C@@H]2C[C@@H](F)CN2C(=O)C2(C(F)(F)F)CC(F)(F)C2)C2CC2)CCCCCCCN(C)C(=O)[C@H](Cc2cc(F)ccc2-c2cnn3ccncc23)N(C)C1=O` [Example 310] ({cBuCO(3,3-F2-1-CF3)}-[Pro(trans-4-F)][Gly(cPr)][NMehhhLys(Me)]L[X196]; lactam 3-C) gave an IC50 [1] of 0.08 µM, an IC50 [2] of 0.02 µM and an IC50 [3] of 0.99 µM. It also gave a GI50 [4] of 0.01 µM and a GI50 [5] of 0.01 µM.
`CC(C)C[C@@H]1NC(=O)[C@@H](N(C)C(=O)[C@@H](NC(=O)[C@@H]2C[C@@H](F)CN2C(=O)C2(C(F)(F)F)CC(F)(F)C2)C2CC2)CCCCCCCN(C)C(=O)[C@H](Cc2cc(Cl)ccc2-c2cnn(S(=O)(=O)C3CC3)c2)N(C)C1=O` [Example 254] ({cBuCO(3,3-F2-1-CF3)}-[Pro(trans-4-F)][Gly(cPr)][NMehhhLys(Me)]L[X42]; lactam 3-C) was tested, and the IC50 [1] was 0.03 µM, the IC50 [2] was 0.02 µM and the IC50 [3] was 0.97 µM. For the same compound, the GI50 [4] was 0.02 µM and the GI50 [5] was 0.02 µM.
`CC(C)C[C@@H]1NC(=O)[C@@H](N(C)C(=O)[C@@H](NC(=O)[C@@H]2C[C@@H](F)CN2C(=O)C2(C(F)(F)F)CC(F)(F)C2)C2CC2)CCCCCCCN(C)C(=O)[C@H](Cc2cc(Cl)ccc2-c2ccc(N3CCOCC3)c(Cl)c2)N(C)C1=O` [Example 345] ({cBuCO(3,3-F2-1-CF3)}-[Pro(trans-4-F)][Gly(cPr)][NMehhhLys(Me)]L[X165]; lactam 3-C) gave an IC50 [1] of 0.03 µM, an IC50 [2] of 0.02 µM and an IC50 [3] of 3.05 µM. The GI50 [4] was 0.02 µM and the GI50 [5] was 0.04 µM.
For `CC(C)C[C@@H]1NC(=O)[C@@H](N(C)C(=O)[C@@H](NC(=O)[C@@H]2C[C@@H](F)CN2C(=O)C2(C(F)(F)F)CC(F)(F)C2)C2CC2)CC=CCCCCN(C)C(=O)[C@H](Cc2cc(F)cnc2OC2CC2)N(C)C1=O` [Example 126], the IC50 [1] was 0.5 µM, the IC50 [2] was 0.02 µM and the IC50 [3] was 0.62 µM. It also gave a GI50 [4] of 0.38 µM and a GI50 [5] of 0.31 µM.
Work on `CC(C)C[C@@H]1NC(=O)[C@@H](N(C)C(=O)[C@@H](NC(=O)[C@@H]2C[C@@H](F)CN2C(=O)C2(C(F)(F)F)CC(F)(F)C2)C2CC2)CCCCCCCN(C)C(=O)[C@H](Cc2cc(Cl)ccc2-c2ccc(-c3cnn4c3COCC4)cc2)N(C)C1=O` [Example 378] ({cBuCO(3,3-F2-1-CF3)}-[Pro(trans-4-F)][Gly(cPr)][NMehhhLys(Me)]L[X169]; lactam 3-C) yielded an IC50 [1] of 0.02 µM, an IC50 [2] of 0.02 µM and an IC50 [3] of 1.12 µM. The GI50 [4] was 0.01 µM and the GI50 [5] was 0.02 µM.
`CC(=O)N1CC(Oc2ncc(Cl)cc2C[C@H]2C(=O)N(C)CCCCCCC[C@H](N(C)C(=O)[C@@H](NC(=O)[C@@H]3C[C@@H](F)CN3C(=O)C3(C(F)(F)F)CC(F)(F)C3)C3CC3)C(=O)N[C@@H](CC(C)C)C(=O)N2C)C1` [Example 324] ({cBuCO(3,3-F2-1-CF3)}-[Pro(trans-4-F)][Gly(cPr)][NMehhhLys(Me)]L[X190]; lactam 3-C) was tested, and the IC50 [1] was 0.06 µM, the IC50 [2] was 0.02 µM and the IC50 [3] was 0.52 µM. The GI50 [4] was 0.04 µM and the GI50 [5] was 0.08 µM.
Compound `Cc1ccc(Cl)cc1C[C@H]1C(=O)N(C)CCCCCCC[C@H](N(C)C(=O)[C@@H](NC(=O)[C@@H]2C[C@@H](F)CN2C(=O)C2(C(F)(F)F)CC(F)(F)C2)C2CC2)C(=O)N[C@@H](CC(C)C)C(=O)N1C` [Example 263] ({cBuCO(3,3-F2-1-CF3)}-[Pro(trans-4-F)][Gly(cPr)][NMehhhLys(Me)]L[X4]; lactam 3-C) has an IC50 [1] of 0.03 µM, an IC50 [2] of 0.02 µM and an IC50 [3] of 0.2 µM. For the same compound, the GI50 [4] was 0.03 µM and the GI50 [5] was 0.04 µM.
`CC(=O)N1C2CCC1CC(c1ccc(F)cc1C[C@H]1C(=O)N(C)CCCCCCC[C@H](N(C)C(=O)[C@@H](NC(=O)[C@@H]3C[C@@H](F)CN3C(=O)C3(C(F)(F)F)CC(F)(F)C3)C3CC3)C(=O)N[C@@H](CC(C)C)C(=O)N1C)C2` (single isomer, unassigned) [Example 59-P2] was tested, and the IC50 [1] was 0.18 µM, the IC50 [2] was 0.02 µM and the IC50 [3] was 0.87 µM. It also gave a GI50 [4] of 0.06 µM and a GI50 [5] of 0.05 µM.
For `CC(C)C[C@@H]1NC(=O)[C@@H](N(C)C(=O)[C@@H](NC(=O)[C@@H]2C[C@@H](F)CN2C(=O)C2(C#N)CCC2)C2CC2)CCCCCCCN(C)C(=O)[C@H](Cc2cc(F)ccc2-c2cnn(C3CC3)c2)N(C)C1=O` [Example 122] (X129-[Pro(trans-4-F)][Gly(cPr)][NMehhhLys(Me)]L[X26]; lactam 3-C), the IC50 [1] was 0.02 µM, the IC50 [2] was 0.02 µM and the IC50 [3] was 0.1 µM. It also gave a GI50 [4] of 0.05 µM and a GI50 [5] of 0.05 µM.
With `CCSc1ccc(-c2ccc(Cl)cc2C[C@H]2C(=O)N(C)CCCCCCC[C@H](N(C)C(=O)[C@@H](NC(=O)[C@@H]3C[C@@H](F)CN3C(=O)C3(C(F)(F)F)CC(F)(F)C3)C3CC3)C(=O)N[C@@H](CC(C)C)C(=O)N2C)cn1` [Example 181] ({cBuCO(3,3-F2-1-CF3)}-[Pro(trans-4-F)][Gly(cPr)][NMehhhLys(Me)]L[X147]; lactam 3-C) the IC50 [1] was 0.04 µM, the IC50 [2] was 0.02 µM and the IC50 [3] was 1.58 µM. It also gave a GI50 [4] of 0.24 µM and a GI50 [5] of 0.42 µM.

Source: patent US20240408169A1 (priority 2023, published 2024)
